Experiments:
[1] = system: cells not expressing the EGFP-NK2R receptor; test: Calcium response on cells not expressing the receptor; assay type: cell-based; set-up: key: ns: not significant; ?: uniterpretable
receptor EGFP-NK2R [2] = molecular target: T1, receptor EGFP-NK2R (Homo sapiens, UniProt P21452); test: cAMP production caused by NKA in HEK 293 cells expressing EGFP-NK2R; assay type: cell-based
T1 sequence (P21452 1-398): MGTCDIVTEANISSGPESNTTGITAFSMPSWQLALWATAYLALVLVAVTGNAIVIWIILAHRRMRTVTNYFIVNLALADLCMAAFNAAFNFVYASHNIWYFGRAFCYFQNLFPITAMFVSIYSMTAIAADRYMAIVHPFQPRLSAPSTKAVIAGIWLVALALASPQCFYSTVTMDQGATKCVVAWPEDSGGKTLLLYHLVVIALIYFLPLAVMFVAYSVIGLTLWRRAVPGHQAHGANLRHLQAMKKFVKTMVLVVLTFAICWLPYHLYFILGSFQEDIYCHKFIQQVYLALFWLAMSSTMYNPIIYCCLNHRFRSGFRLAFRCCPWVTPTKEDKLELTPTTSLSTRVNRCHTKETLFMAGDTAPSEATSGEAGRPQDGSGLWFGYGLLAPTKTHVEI
Protocol: 30 mm 6-well cell-culture dishes are treated with collagen then seeded with 50,000 cells expressing the receptor EGFP-NK2R. […] The quantity of cAMP produced (expressed in pmoles/well) is determined according to a radioimmunological process described in Gicquiaux et al. (2002).

receptor EGFP-NK2R [3] = molecular target: T1, receptor EGFP-NK2R; test: Calcium response caused by NKA/NKA-Bo in HEK 293 cells expressing EGFP-NK2R (indo-1); assay type: cell-based; conditions: for time necessary to return to 50% of the maximum calcium response: 5 nM NKA, 91 seconds in the absence of 805
Protocol: The calcium responses caused by the agonist NKA-Bo on cells expressing the receptor EGFP-NK2R are recorded after charging the cells with the calcium-sensitive fluorescent probe: indo-1, according to the protocol described in Vollmer et al. (1999). The cells are put into suspension at a rate of 500,000 cells/ml in Hepes buffer and arranged in a spectrofluorimeter cuvette. The excitation wavelength is fixed at 338 nm and the emission is recorded at 400 and 470 nm. The responses traced are the ratios of the signals 400/470.

receptor EGFP-NK2R [4] = molecular target: T1, receptor EGFP-NK2R; test: Calcium response caused by NKA 4-10 TR7 in HEK 293 cells expressing EGFP-NK2R (indo-1); assay type: cell-based; conditions: 805 20 μM; NKA 4-10 TR7 106, 50.3, 26.5 and 10.6 nM
Protocol: The cells are put into suspension at a rate of 500,000 cells/ml in Hepes buffer and arranged in a spectrofluorimeter cuvette. The excitation wavelength is fixed at 355 nm and the emission is recorded at […].

[5] = molecular target: T2, wild-type human receptor NK2 (Homo sapiens, UniProt P21452); test: Calcium response caused by neurokinin A in HEK 293 cells expressing NK2 receptor; assay type: cell-based; conditions: 805 20 μM; neurokinin A 10 or 100 nM
T2 construct: expressed in transfected cells; host or cells: HEK 293
T2 sequence (P21452 1-398): T1 sequence (P21452 1-398)
Protocol: The cells are put into suspension at a rate of 1,000,000 cells/ml in Hepes buffer (op. cit.) and arranged in a spectrofluorimeter cuvette. The excitation wavelength is fixed at 338 nm and the emission is recorded at 400 nm. The responses traced are the signals recorded at 400 nm.

receptor EGFP-NK2R [6] = molecular target: T3, receptor EGFP-NK2R (UniProt P16610); test: Dissociation kinetics of NKA-Bo bound to EGFP-NK2R by fluorescence energy transfer; assay type: binding; set-up: % al (max): maximum value observed for the increase in amplitude of the rapid dissociation rate; ns = n; other: 20 nM of NK; % al (at 10 μM); other: compou; fused on or other part: EGFP fused to the receptor as FRET donor; conditions: for λ1/λ2 amplitudes (rapid/slow) of dissociation of NKA-Bo: 30/70 without 805
T3 sequence (P16610 1-390): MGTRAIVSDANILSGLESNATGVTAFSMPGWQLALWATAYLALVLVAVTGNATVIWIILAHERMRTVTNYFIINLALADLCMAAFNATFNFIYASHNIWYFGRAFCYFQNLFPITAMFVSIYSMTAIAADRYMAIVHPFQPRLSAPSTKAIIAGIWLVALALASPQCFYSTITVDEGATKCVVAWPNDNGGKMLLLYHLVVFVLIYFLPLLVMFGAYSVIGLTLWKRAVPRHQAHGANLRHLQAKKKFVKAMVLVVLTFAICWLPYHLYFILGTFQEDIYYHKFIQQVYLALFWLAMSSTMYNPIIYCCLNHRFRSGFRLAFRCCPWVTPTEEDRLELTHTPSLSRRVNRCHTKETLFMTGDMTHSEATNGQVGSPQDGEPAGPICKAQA
Protocol: Dissociation (FIG. 4B): HEK 293 cells expressing the receptor EGFP-NK2R are put into suspension at a concentration of 1,000,000 cells/ml in Hepes physiological buffer (in mM: 137.5 NaCl; 1.25 MgCl2; 1.25 CaCl2; 6 KCl; 5.6 glucose; 10 Hepes; 0.4 NaH2PO4; 1% BSA (w/v); pH 7.4) and arranged in a 1 ml cuvette equipped with a magnetic stirrer on the cuvette holder of a SPEX fluorolog 3 spectrofluorimeter.
(§1) The amplitude of each relaxation is then given by the adjustment of the experimental traces.

receptor EGFP-NK2R [7] = molecular target: T3, receptor EGFP-NK2R; test: Reversion of the binding of NKA-Bo to EGFP-NK2R by fluorescence energy transfer; set-up: % al (max): maximum value observed for the increase in amplitude of the rapid dissociation rate; ns = n; other: 20 nM of NK; % al (at 10 μM); other: compou; fused on or other part: EGFP fused to the receptor as FRET donor
Excerpt: as §1

SMILES: N#CCN(Cc1ccccc1)Cc1ccc2ccccc2c1 [compound 805, [benzyl(2-naphthylmethyl)amino]acetonitrile]
- Ca Rep.: ability to evoke a calcium response on cells not expressing the EGFP-NK2R receptor ([1]; Table 1): ns
- Ca Rep. ([1]; Table 2): ns
- Rmax, maximum cAMP response to NKA relative to control (receptor EGFP-NK2R [2]; [805]=10 μM): 0.7
- Rmax, maximum cAMP response to NKA relative to control (receptor EGFP-NK2R [2]; [805]=50 μM): 0.3
- time necessary to return to 50% of the maximum calcium response (receptor EGFP-NK2R [3]; 805 10 μM): 105 s
- effect on the calcium response caused by NKA (receptor EGFP-NK2R [3]; 805 50 μM with 1, 5 and 1000 nM NKA): increases the duration of the calcium response
- time necessary to return to 50% of the maximum calcium response (receptor EGFP-NK2R [3]; 805 50 μM): 115 s
- effect on the calcium response caused by NKA 4-10 TR7 (receptor EGFP-NK2R [4]): increases the amplitude of the response
- effect on the calcium response caused by neurokinin A [5]: increases the amplitude of the response
- λ1/λ2 amplitudes (rapid/slow) of dissociation of NKA-Bo (receptor EGFP-NK2R [6]; 1 μM 805): 35/65
- λ1/λ2 amplitudes (rapid/slow) of dissociation of NKA-Bo (receptor EGFP-NK2R [6]; 50 μM 805): 80/20
- % al (max): maximum value observed for the increase in amplitude of the rapid dissociation rate (receptor EGFP-NK2R [6]; Table 1, ns = not significant): 80%
- % al (at 10 μM) (receptor EGFP-NK2R [6]; compound 10 μM, T = 22 ± 1 is amplitude of rapid dissociation in the absence of effector): 29 (10 μM) %
- EC50 (receptor EGFP-NK2R [6]; read-out: EC50 (μM): concentration of compound causing a 50% increase (relative to the maximum value) in the percentage of the amplitude of the rapid dissociation rate, Table 1, dissociation of NKA-Bo from EGFP-NK2R, ns = not significant): 3 to 8 µM
- % bond reversion (at 10 μM) (receptor EGFP-NK2R [7]; compound 10 μM): 1 (10 μM) %
- IC50 (receptor EGFP-NK2R [7]; read-out: IC50 (μM): concentration of compound for which a 50% reduction is observed in the binding of NKA-Bo, 20 nM of NKA-Bo, EGFP-NK2R receptor): > 500 µM

From US20060194259A1, “Method for isolating an allosteric effector of a receptor” (priority 2002, published 2006)
